The target of one experiment is T1, rat VMAT2-His (Rattus norvegicus, UniProt Q01827).
T1 construct: The ORF of rat VMAT2 was subcloned into a pFastBac vector; His; made in house; host or cells: Sf9 insect cells (baculovirus)
Put plainly: Differential scanning fluorimetry (DSF) with CPM dye: change of melting temperature of purified VMAT2. It is filed as binding. The protocol: To screen purified VMAT2 by DSF we expressed the rat VMAT2 protein, as VMAT2-His, in SF9 insect cells using the baculovirus expression system. The transporter was solubilized and purified in n-Dodecyl-β-D-maltoside (DDM)/cholesterol hemisuccinate (CHS) micelles by immobilized metal affinity chromatography (IMAC) and size exclusion chromatography (SEC). […] Screening was performed using DSF and the thiol-reactive dye 7-diethylamino-3-(4-maleimidophenyl)-4-methylcoumarin (CPM), an approach that monitors changes to the protein melting temperature (Tm) upon compound binding. Using CPM or other dyes, DSF-based assays have successfully been used in molecular-based screenings[34],[35]. […] DSF screening was performed in 384 well plates using the thiol-sensing dye 7-diethylamino-3-(4-maleimidophenyl)-4-methylcoumarin (CPM) (Merck). […] Protein melting curves were determined using a LightCycler 480 ii RT-PCR system (Roche), with a temperature ramp increasing from 25 to 95 °C at a rate of 2 °C/min. Data analysis was performed using an in-house software that automatically determines the protein midpoint melting temperature (Tm) based on the second derivative of the melting curves or using the HTSDSF explorer as described in ref. [58]. […] 6 μl of this mix was dispensed to each well of 384 well plates using a Multidrop™ Combi Reagent Dispenser (Thermo Scientific). […] All initial hits were then subjected to an initial validation in triplicates with a compound concentration of 200 μM and a ΔTm > 5× the standard deviation (SD) cut off. […] Processing of the data from the primary screening and the concentration-dependent validation was performed as reported.

Experiment [1] has as its target T2, VMAT2 (Rattus norvegicus, UniProt Q01827). The following applies: 50 µM.
Procedure: (§1) We preincubated cells expressing VMAT2 with 50 μM compounds and measured [^3H]-DTBZ binding (5 nM) to the sample (Fig. 3a). […] Hek293 cells were grown and transfected with pcDNA3.1 VMAT2-His as described above. Two days after transfection, cells were harvested, washed and transferred to 96 well MultiScreen FB filter plates (Millipore). […] Cells were washed 3 times with ice cold PBS and 50 µl Ultima Gold LLL (PerkinElmer) was added to each well. […] After a 20 min incubation at 37 °C, cells were washed and [^3H] scintillation counting was performed as described above.
The target in experiment [2] is T2, VMAT2. Put plainly: [3H]-DTBZ competition assay in Hek293 cells expressing VMAT2.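 Note: HEK293 cells transfected with VMAT2, pretreated 30 min with compound, then given 5 nM [3H]-DTBZ for 20 min at 37 °C, bound label read by scintillation counting.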 The following applies: 50 μM compound.
Procedure: as §1
A further experiment concerns the target rat VMAT2 (Rattus norvegicus, UniProt Q01827). Put plainly: FFN206 uptake assay in transfected Hek293 cells.
[3] abbreviates: Table S2 dose response, compound 0,37 µM, read-out: ΔTm.
The mark [4] stands for this setting: Table S2 dose response, compound 10 µM, read-out: ΔTm.
Setting [5] is: Table S2 dose response, compound 30 µM, read-out: ΔTm.
Setting [6] is: Table S2 dose response, compound 90 µM, read-out: ΔTm.
Where [7] appears, read: Table S2 dose response, compound 270 µM, read-out: ΔTm.
Where [8] appears, read: Table S2 dose response, compound 1,11 µM, read-out: ΔTm.
[9] abbreviates: Table S2 dose response, compound 3,33 µM, read-out: ΔTm.
Setting [10] is: Table S1, primary hits, average change in melting temperature vs controls, triplicates.
[11] abbreviates: Table S2 dose response, compound 10 µM.
Where [12] appears, read: Table S2 dose response, compound 30 µM.
[13] abbreviates: Table S2 dose response, compound 90 µM.

SMILES strings stand for the structures. Several values for one entry are separate records, joined by “and”; a condition that tells them apart may be missing. Equal entries are not always repeated. Structures can show the parent of a compound that is named as a salt. Where two headings read alike, the source gives them in different places.

By IC50 is commonly meant the concentration that inhibits the measured activity by half.

Sequence of rat VMAT2 (Q01827 whole entry): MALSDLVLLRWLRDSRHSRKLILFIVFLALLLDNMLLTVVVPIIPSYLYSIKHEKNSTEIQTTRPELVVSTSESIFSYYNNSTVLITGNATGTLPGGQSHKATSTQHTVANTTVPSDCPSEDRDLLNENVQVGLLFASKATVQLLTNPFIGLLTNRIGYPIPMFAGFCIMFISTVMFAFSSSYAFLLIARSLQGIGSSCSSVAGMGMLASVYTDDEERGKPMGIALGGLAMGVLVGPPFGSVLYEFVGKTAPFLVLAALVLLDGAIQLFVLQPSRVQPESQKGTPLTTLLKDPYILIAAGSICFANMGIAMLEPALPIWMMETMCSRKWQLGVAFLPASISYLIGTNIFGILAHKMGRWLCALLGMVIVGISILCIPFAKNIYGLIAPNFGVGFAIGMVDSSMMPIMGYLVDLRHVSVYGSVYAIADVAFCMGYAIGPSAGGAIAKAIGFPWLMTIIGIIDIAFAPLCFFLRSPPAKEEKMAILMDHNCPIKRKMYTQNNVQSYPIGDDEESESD
T1 sequence (Q01827 whole entry): as above
T2 sequence (Q01827 whole entry): as above

Consider `CCCNCC(O)COc1ccccc1C(=O)CCc1ccccc1` (stereo not drawn) [Propafenone, Propafenone hydrochloride], for which the ΔTm at rat VMAT2-His (Table 1, DSF screening, mean ± SD of triplicates) came to 4.53 ± 0.18 oC; on rat VMAT2-His (setting [8]), 1.22 °C; at rat VMAT2-His (setting [9]) it was 1.22 °C. Moreover, on rat VMAT2-His (setting [3]), the ΔTm at 37 µM was determined as 0.99 °C. For the same compound, at rat VMAT2-His (setting [4]), the ΔTm at 10 µM stood at 1.65 °C. The ΔTm at 30 µM at rat VMAT2-His (setting [5]) stood at 2.63 °C. In addition, the ΔTm at 90 µM on rat VMAT2-His (setting [6]) turned out to be 3.49 °C. Also, at rat VMAT2-His (setting [7]), the ΔTm at 270 µM was 4.45 °C. In addition, the activity at VMAT2 [1] is 60.7 ± 20.8%. Besides, the “effect on [3H]-DTBZ binding compared with DMSO control (one-way ANOVA, p < 0.001)” value at VMAT2 [2] was “statistically significantly effect”.
Consider `C#CCN(C)[C@H](C)Cc1ccccc1` [Selegiline hydrochloride], for which, at rat VMAT2-His (setting [4]), the ΔTm at 10 µM was determined as 0.3 °C. Also, the ΔTm at 30 µM at rat VMAT2-His (setting [5]) is 0.19 °C. In addition, the ΔTm at 90 µM at rat VMAT2-His (setting [6]) came to 0.28 °C. For the same compound, at rat VMAT2-His (read-out: ΔTm), the ΔTm at 11 µM was determined as 0.31 °C, the ΔTm at 12 µM was determined as 0.33 °C, the ΔTm at 33 µM was 0.32 °C and the ΔTm at 37 µM came to 0.38 °C. Moreover, the ΔTm at 270 µM on rat VMAT2-His (read-out: ΔTm) worked out at 0.36 °C.
As to `CCCc1nn(C)c2c(=O)[nH]c(-c3cc(S(=O)(=O)N4CCN(C)CC4)ccc3OCC)nc12` [Sildenafil], on rat VMAT2-His (setting [10]), the ΔTm is reported as 1,10 ± 0,14 oC. In addition, the ΔTm at 12 µM at rat VMAT2-His (Table S2 dose response, compound 0,12 µM, read-out: ΔTm) was determined as 0.43 °C. On rat VMAT2-His (setting [3]), the ΔTm at 37 µM came to 0.04 °C. Besides, the ΔTm at 10 µM at rat VMAT2-His (setting [4]) was determined as 0.11 °C. For the same compound, the ΔTm at 30 µM on rat VMAT2-His (setting [5]) turned out to be 0.1 °C. On rat VMAT2-His (setting [6]), the ΔTm at 90 µM was found to be 0.39 °C. Also, at rat VMAT2-His (setting [7]), the ΔTm at 270 µM came out at 1.04 °C. For the same compound, at rat VMAT2-His (setting [8]), the ΔTm at 11 µM is 0.04 °C. Moreover, the ΔTm at 33 µM at rat VMAT2-His (setting [9]) was found to be 0.09 °C.
Turning to `CC(C)(C)c1ccc(C(O)CCCN2CCC(C(O)(c3ccccc3)c3ccccc3)CC2)cc1` (stereo not drawn) [Terfenadine], the ΔTm at rat VMAT2-His (setting [10]) is -13,22 ± 0,13 oC. For the same compound, at rat VMAT2-His (setting [4]), the ΔTm at 10 µM was 0.21 °C. At rat VMAT2-His (setting [5]), the ΔTm at 30 µM is 0.24 °C. Besides, the ΔTm at 90 µM on rat VMAT2-His (setting [6]) was -0.01 °C. In addition, on rat VMAT2-His (setting [7]), the ΔTm at 270 µM is -0.6 °C.
Take `CCSc1ccc2c(c1)N(CCCN1CCN(C)CC1)c1ccccc1S2.O=C(O)CC(O)C(=O)O.O=C(O)CC(O)C(=O)O` [Thiethylperazine dimalate]: the ΔTm on rat VMAT2-His (11 µM) is on record as -0,77 oC; at rat VMAT2-His (12 µM) it was -0,61 oC; at rat VMAT2-His (33 µM), -0,78 oC; on rat VMAT2-His (37 µM), -0,58 oC; on rat VMAT2-His (270 µM) it was -3,69 oC; on rat VMAT2-His (setting [11]), -1,01 oC. Also, the results for the ΔTm at rat VMAT2-His (setting [12]) and at rat VMAT2-His (setting [13]) were -1,34 oC and -2,15 oC, respectively.
Turning to `CN1CCN(CCCN2c3ccccc3Sc3ccc(C(F)(F)F)cc32)CC1` [Trifluoperazine dihydrochloride], the ΔTm at rat VMAT2-His is -6,15 ± 0, 08 oC. In addition, on rat VMAT2-His (read-out: ΔTm), the ΔTm at 10 µM was -0.69 °C, the ΔTm at 30 µM was -0.28 °C, the ΔTm at 90 µM is -0.23 °C and the ΔTm at 270 µM is -1.05 °C.
With `CN(C)CCCN1c2ccccc2Sc2ccc(C(F)(F)F)cc21` [Triflupromazine hydrochloride], the ΔTm on rat VMAT2-His is reported as -4,15 ± 0, 03 oC. Moreover, at rat VMAT2-His (read-out: ΔTm), the ΔTm at 10 µM was -0.1 °C, the ΔTm at 30 µM was -0.1 °C, the ΔTm at 90 µM was -0.84 °C and the ΔTm at 270 µM is -2.21 °C.
The compound `OCc1cc([C@@H](O)CNCCCCCCOCCOCc2c(Cl)cccc2Cl)ccc1O` [Vilanterol] returned an IC50 at rat VMAT2 of 47 ± 14 nM. Also, the “FFN206 uptake relative to no compound (=1), replicate samples” value was 0.9388 and 0.9839 and 0.9625 and 0.9806 on rat VMAT2 (Fig. 2b/2c source data, compound 0.0152 μM); 0.349 and 0.2794 and 0.2127 and 0.5464 at rat VMAT2 (Fig. 2b/2c source data, compound 0.1372 μM); 0.2586 and 0.1616 and 0.1258 and 0.3046 at rat VMAT2 (Fig. 2b/2c source data, compound 0.4115 μM); 0.2328 and 0.1144 and 0.1141 and 0.2682 on rat VMAT2 (Fig. 2b/2c source data, compound 1.2346 μM); 0.255 and 0.1011 and 0.07806 and 0.2392 on rat VMAT2 (Fig. 2b/2c source data, compound 3.7037 μM); 0.2251 and 0.08176 and 0.1003 and 0.2777 at rat VMAT2 (Fig. 2b/2c source data, compound 11.1111 μM). Besides, the “FFN206 uptake relative to no compound (=1), replicate samples” value at rat VMAT2 (Fig. 2c source data, compound 0.0017 μM) was 1.315 and 1.032 and 1.041 and 1.083.
Consider `Cl.Cl.OCCN1CCN(CC/C=C2/c3ccccc3Sc3ccc(Cl)cc32)CC1` [Zuclopenthixol dihydrochloride], for which the ΔTm on rat VMAT2-His (11 µM) was -0,58 oC; at rat VMAT2-His (12 µM) it was -0,36 oC; at rat VMAT2-His (33 µM), 0,03 oC; on rat VMAT2-His (37 µM), -0,44 oC; at rat VMAT2-His (270 µM) it was -1,51 oC; on rat VMAT2-His (setting [11]) it was -0,07 oC. For the same compound, the ΔTm is -1,80 oC at rat VMAT2-His (setting [12]) and -0,79 oC at rat VMAT2-His (setting [13]).

Values taken from PMC9684503 (Communications Biology, 2022).
